Experimental findings from patent EP1145713A1, “TELOMERASE INHIBITORS” (KYOWA HAKKO KOGYO CO., LTD., priority 1999, dated 2000) are described below.

Series [1] deals with human leukemia cell line CCRF-CEM. The experiment in a line: Telomerase inhibitory activity in cell system (Test Example 3, TRAP assay of cell extract). Type of series: cell-based. How it is done:
After a test compound was allowed to contact with human leukemia cell line CCRF-CEM for 7 days, a cell extraction solution was prepared and the enzyme activity was measured by a known method (U.S. Patent 5,629,154). That is, the cell extraction solution was prepared using a buffer solution containing 0.5% CHAPS {3-[(3-cholamidopropyl)dimethylammonio]-1-propanesulfonate}. using the extraction solution, TRAP (Telomeric Repeat Amplification Protocol) assay was carried out (TRAPEZE™ ELISA Telomerase Detection Kit, manufactured by Oncor Co.) Inhibitory ratio was calculated based on the ratio of the enzyme activity in the extraction solution from the cells treated with the test compound relative to the enzyme activity in the extraction solution from the test compound-untreated cells.

Series [2] shares this test system. The series is described as follows: Induction of the reduction of telomere in cell system (Test Example 4). The class given is cell-based. As for the experimental part:
After a test compound was. allowed to contact with human leukemia cell line CCRF-CEM for 21 days, a chromosomal DNA was extracted and the telomere length was measured by a known method (Biotechniques, 23: 476-484 (1997)). That is, the extracted chromosomal DNA was adsorbed on a membrane, and hybridization was carried out by using a labeled oligonucleotide probe having a sequence complementary to the telomere sequence. The signal of the label on the membrane proportional to the telomere DNA length was detected and digitalized.

The mark [3] stands for this setting: contact for 7 days, 8.9, 13 µmol/L.
The mark [4] stands for this setting: contact for 21 days, 13, 30 µmol/L.
The mark [5] stands for this setting: contact for 7 days, 2, 4.4 µmol/L.
The mark [6] stands for this setting: contact for 21 days, 2, 4.4 µmol/L.

Turning to `CC1=C(CCC(=O)O)c2cc3[nH]c(cc4nc(cc5[nH]c(cc1n2)c(CCC(=O)O)c5C)C(C)=C4CCC(=O)O)c(CCC(=O)O)c3C` [Compound 1], in series [1] (setting [3]), the cytotoxicity entry is recorded as “no remarkable cytotoxicity was shown” and the “inhibition of intracellular telomerase” value is reported as “inhibited intracellular telomerase”. In series [2] (setting [4]), the cytotoxicity result is reported as “no remarkable cytotoxicity was shown” and the telomere reduction result was “induced telomere reduction”.
Consider `C[n+]1ccc(-c2c3nc(c(-c4cc[n+](C)cc4)c4ccc([nH]4)c(-c4cc[n+](C)cc4)c4nc(c(-c5cc[n+](C)cc5)c5ccc2[nH]5)C=C4)C=C3)cc1` [TMPyP4], for which the cytotoxicity result in series [1] (setting [5]) is recorded as “no remarkable cytotoxicity was shown”; in series [1] (contact for 7 days, concentrations higher than 4.4 µmol/L) it was “no cellular protein was recovered at higher concentrations because of the cytotoxicity”; in series [2] (setting [6]), “no remarkable cytotoxicity was shown”; in series [2] (contact for 21 days, concentrations higher than 4.4 µmol/L), “no chromosomal DNA was recovered at higher concentrations because of the cytotoxicity”. Moreover, the “inhibition of intracellular telomerase” value in series [1] (setting [5]) is recorded as “did not inhibit telomerase”. For the same molecule, the telomere reduction entry in series [2] (setting [6]) is given as “did not induce telomere reduction”.
